# Laboratory results published in article PMC10295666 (Bioengineering, 2023).
# Positions of bridges follow the written chain, without caps; N, C: chain ends. Residues, ends and D or L forms follow the SMILES beside them. No end group written: not given here.
# Tests used:
# [1] = test system: normal human liver cell line 7701; assay: Toxicity on normal liver cells; format: cell-based; details: QSG-7701 cells
# Description: Normal human liver cells QSG-7701 and Hepatocellular Carcinoma Cell lines 7721, Huh7, MHCC97H, MHCC97L, and HepG2 were all obtained from the Institute of Biomedical Sciences, Jinan University. All cells were cultured in DMEM medium (Gibco, Grand Island, NE, USA) supplemented with 10% fetal bovine serum (Gibco, Grand Island, NE, USA). The cell lines were incubated in a humidified atmosphere with 5% CO2 at 37 °C.
# Cells in the logarithmic growth phase with good viability were seeded into 96-well plates at a density of 2500 cells per well and incubated for 24 h at 37 °C with 5% CO2. The old medium was removed, and the cells were starved with DMEM medium containing 0.5% FBS for 24 h. Peptides were diluted with 0.5% starved medium to different concentrations and added to each well with the same volume. The cells were then incubated for an additional 48 h at 37 °C. After removing the medium, 100 μL of CCK-8 working solution was added to each well, and the plate was incubated for 1 h at 37 °C with 5% CO2. Finally, the absorbance at 450 nm of each well was measured using a multifunctional microplate reader. Cell viability (%) was equal to (Asample − Ablank)/(Acontrol − Ablank) × 100%. […]
# Cells in the logarithmic growth phase were seeded at a density of 1000 cells per well in 6-well plates and cultured for 24 h. […] After air-drying the plate, the colonies were photographed and counted.
# [2] = In vitro serum stability assay of peptides (HPLC-UV / LC-MS); format: in vitro ADME; details: human; serum from healthy individuals mixed with peptide 9:1, peptide 1 mg/mL, 37 °C, 0-1440 min, 10% TFA precipitation, HPLC-UV (C18) peak area
# Description: The serum obtained from healthy individuals was centrifuged at a low speed and mixed with peptides at a ratio of 9:1 to achieve a peptide concentration of 1 mg/mL. The peptide–serum mixture was then incubated at 37 °C for different periods. After reaching the pre-determined time point (0, 10, 20, 30, 60, 120, 240, 480, 960, or 1440 min), pure trifluoroacetic acid was added to each sample to reach a final concentration of 10%. The mixture was then vortexed and centrifuged for 10 min at 13,000 rpm, and the supernatant (10 μL) was collected and stored in HPLC vials for analysis.
# HPLC-UV analysis was performed using a C18 analytical column (Thermo Acclaim300 C18 LC ColuMns, 4.6 mm diameter, 150 mm length, Catalog #: 060266) and a Waters ACQUITY Arc Bio instrument, following the method shown in Table 1. The target peak was determined based on the retention time of pure peptides, and on this basis, detect peptides were degraded at different times and their peak area recorded to generate a degradation curve. The degradation rate of peptides was equal to (Areasample − Areablank)/(Areacontrol − Areablank) × 100%. The area of the blank was equal to the peak area detected after mixing peptides with ultrapure water at the same initial concentration. The signal-to-noise ratio of all collected data was greater than 10. […]
# [3] = test system: MHCC97L transplant tumors; assay: MHCC97L subcutaneous xenograft model; details: 25 mg/kg tail vein injection, monitored every two days for 14 days, n = 4
# Description: Male BALB/c-nude mice were purchased from Guangdong GemPharmatech Co., Ltd. These mice were fed with food and purified water at room temperature in the SPF laboratory. MHCC97L cells (0.1 mL of physiological saline containing 1 × 10^7 cells) were subcutaneously injected into the armpit of 5-week-old male BALB/c-nude mice. Tumor volume and weight were measured every 2 days, and tumor volume was calculated using the following formula: (short axis)^2 × (long axis)/2. When the tumor volume reached approximately 50 mm^3, these mice were weighed and randomly divided into 3 groups (n = 4): the model group, the SAIF group (25 mg/kg), and the ctSAIF group (25 mg/kg). SAIF and ctSAIF were administered via tail vein injection at a dose of 25 mg/kg. The peptide was dissolved in saline solution to 5 mg/mL, and the dosage volume of each mouse was calculated using the following formula: (25 mg/kg × body weight)/(5 mg/mL). After 14 days of treatment, the mice were sacrificed, and the tumors were collected for histopathological examination.
# [4] = serum obtained from healthy individuals; details: 37 °C, up to 1440 min
fragment found [4],Molecule,toxicity on normal human liver cell line 7701 [1],half-life at 1 mg/mL [2],weight of nude mice during treatment [3]
–,CSCC[C@@H]1NC(=O)[C@H](C)NC(=O)[C@H](CC(=O)O)NC(=O)[C@H](C)NC(=O)[C@H](CO)NC(=O)[C@H](CCSC)NC(=O)[C@H](CCCNC(=N)N)NC(=O)[C@H](C(C)C)NC(=O)[C@H](CCCNC(=N)N)NC(=O)[C@H](CCCCN)NC(=O)[C@H](CC(C)C)NC(=O)[C@@H]2CCCN2C(=O)[C@@H]2CCCN2C(=O)[C@H](CCCNC(=N)N)NC(=O)[C@H](CCCCN)NC(=O)[C@H](Cc2ccccc2)NC(=O)[C@H](CCCCN)NC(=O)CNC(=O)[C@H](CCCCN)NC(=O)[C@@H](N)CSSC[C@@H](C(=O)O)NC(=O)[C@H](CC(C)C)NC1=O [ctSAIF] (H-CKGKFKRPPLKRVRMSADAMLC-OH; disulfide 1-22),no significant toxicity,~6 h,no significant changes
"tSAIF (KGKFKRPPLKRVRMSADAML), 2 h",KEIDDLNLKVFDLKGKFKRPPLKRVRMSADAML,–,–,–
–,KEIDDLNLKVFDLKGKFKRPPLKRVRMSADAML [SAIF],no significant toxicity,–,–
